Results on 2 compounds are retold here after patent US20220073541A1, “SILICON ION COMPLEX ORGANIZED WITH CARBOXYLIC ACID, METHOD FOR MANUFACTURING COMPLEX, AND PRODUCT USING SAME” (KOREA NEW TECHNOLOGY CO.,LTD., priority 2019, published 2022).

Each structure is given as a SMILES string.

The nature of this data set: Metasilicate dissolution experiment (gastric acid conditions, pH 1.5). The format is physicochemical. The method, then: A dissolution experiment was performed using sodium metasilicate nonahydrate (Na2SiO3.9H2O).
(2) The pH of the solution was lowered to pH 1.5 using 37% hydrochloric acid and measured again.
(1) 150 ml of water was added in a 250 ml beaker, adjusted in pH to a value of 1.5 with 37% hydrochloric acid to meet the standards for gastric acid of the human body, and combined with another water to a volume of 250 ml.
(2) 1 g of metasilicate nonahydrate (Na2SiO3.9H2O) was added to the solution of step (1).

For the compound `O.O.O.O.O.O.O.O.O.O=[Si]([O-])[O-].[Na+].[Na+]` [Comparative Example 1, sodium metasilicate nonahydrate (Na2SiO3.9H2O)], the “pH of solution in pure water” value (1 g in 500 ml pure water) is recorded as 12.23. The “behaviour of dissolved silicate after lowering pH” value (1 g in 500 ml pure water, pH lowered to 1.5 using 37% hydrochloric acid) is “gelled while agglomerating”. For `O.O.O.O.O.O.O.O.O.O=[Si]([O-])[O-].[Na+].[Na+]` [Comparative Example 2, metasilicate nonahydrate (Na2SiO3.9H2O)], the “dissolution of silicate added to acidic water” value (1 g added to 250 ml water at pH 1.5 (37% hydrochloric acid)) was “precipitated rather than dissolved”.
